Measured values taken from the supplement of paper PMC7840683.
± gives the standard deviation of the averaged measurements.

Tested on: HepaRG
Assay: LDH release cytotoxicity, % of total lysis control; higher = more cytotoxic
Conditions: 48 h
How it was run: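 The CytoTox-ONE kit was used to read LDH in 50 µL spent medium as resorufin fluorescence on a Tecan Safire, with 0.1% Triton X added to total lysis wells. Beforehand, single-lot HepaRG cells on collagen I-coated 96-well plates had been exposed in duplicate for 48 h to eight-point half-log series (top 100 µM) in serum-free induction medium containing 0.5% DMSO. Percent cytotoxicity was normalized against on-plate vehicle and total lysis controls and averaged over duplicates.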

Compound	LDH release cytotoxicity (0.03162 µM) [%]	LDH release cytotoxicity (0.1 µM) [%]	LDH release cytotoxicity (0.3162278 µM) [%]	LDH release cytotoxicity (1 µM) [%]	LDH release cytotoxicity (3.16228 µM) [%]	LDH release cytotoxicity (10 µM) [%]	LDH release cytotoxicity (31.6228 µM) [%]	LDH release cytotoxicity (100 µM) [%]	also measured
COC(=O)C1C2CC3c4[nH]c5cc(OC)ccc5c4CCN3CC2CC(OC(=O)c2cc(OC)c(OC)c(OC)c2)C1OC (configuration not stated) [Reserpine]									LDH release cytotoxicity (0.0267212 µM): -2.17 ± 0.63%; LDH release cytotoxicity (0.0845 µM): -2.63 ± 0.23%; LDH release cytotoxicity (0.267213 µM): -1.99 ± 0.45%; LDH release cytotoxicity (0.845 µM): -3.03 ± 0.42%; LDH release cytotoxicity (2.67212 µM): -1.69 ± 0.29%; LDH release cytotoxicity (8.45 µM): -1.52 ± 1.1%; LDH release cytotoxicity (26.7212 µM): 10.5 ± 0.66%; LDH release cytotoxicity (84.5 µM): 46.8 ± 0.67%
COc1nn(CSP(=S)(OC)OC)c(=O)s1 [Methidathion]	1.04 ± 0.16	-1.02 ± 0.18	-0.883 ± 0.25	-0.575 ± 0.076	0.0624 ± 0.29	1.08 ± 1.4	0.461 ± 1	1.33 ± 0.11	
Cc1cc(SC2C(=O)CC(CCc3ccc(N)cc3)(C(C)C)OC2=O)c(C(C)(C)C)cc1CO (configuration not stated) [CI-1029]	-0.634 ± 0.8	-3.84 ± 0.53	-3.74 ± 0.38	-3.966 ± 0.027	-4.19 ± 0.59	-3.49 ± 0.12	-3.96 ± 0.73	-2.25 ± 0.55	
Cc1cn(C2CC(N=[N+]=[N-])C(CO)O2)c(=O)nc1O (configuration not stated) [3'-Azido-3'-deoxythymidine]	-0.42 ± 0.53	-0.0584 ± 0.55	-1.1 ± 0.81	-0.757 ± 0.25	-0.57 ± 0.61	-0.541 ± 0.24	-0.814 ± 0.1	-0.709 ± 0.47	
CCc1c(C(=O)NN2CCCCC2)nn(-c2ccc(Cl)cc2Cl)c1-c1ccc(Br)cc1 [Surinabant]	-0.47 ± 0.5	-0.954 ± 0.83	-1.13 ± 1.6	-1.44 ± 0.058	-0.402 ± 0.14	2.16 ± 0.28	15.8 ± 2.2	77.6 ± 2.6	
Cc1ccc([N+](=O)[O-])cc1C [1,2-Dimethyl-4-nitrobenzene]	-1.16 ± 0.66	-1.81 ± 0.53	-1.44 ± 0.14	-1.1 ± 0.27	-1.56 ± 0.13	-1.07 ± 0.013	-0.524 ± 0.73	0.459 ± 1.3	
N=C1C=NN(c2ccccc2)C(=O)C1Cl (configuration not stated) [Chloridazon]	-1.49 ± 0.4	-1.35 ± 0.3	-0.939 ± 0.84	-1.3 ± 0.23	-0.697 ± 0.44	-0.282 ± 0.67	-0.579 ± 1.3	2.76 ± 0.26	
CCOCCOCCOCCO [2-[2-(2-Ethoxyethoxy)ethoxy]ethanol]	-2.06 ± 0.3	-1.83 ± 0.41	-2.87 ± 0.13	-2.53 ± 0.46	-2.5 ± 0.72	-1.81 ± 0.26	-1.33 ± 0.37	0.397 ± 0.68	
CCC(=O)OC1CCC2C3CCC4=CC(=O)CCC4(C)C3CCC12C (configuration not stated) [Testosterone propionate]	-1.39 ± 0.61	-0.545 ± 0.63	-1.1 ± 0.026	-1.85 ± 0.12	-1.06 ± 0.29	-1.07 ± 0.27	-0.42 ± 0.67	-0.461 ± 0.24	
CCCCCCCCCCCCCO [1-Tridecanol]	-1.51 ± 0.42	-0.843 ± 0.39	-0.758 ± 0.15	-0.914 ± 0.16	-0.263 ± 1	0.564 ± 1.8	0.347 ± 1.4	3.78 ± 2.1	
CC(=O)C1C(=O)C=C(C)OC1=O (configuration not stated) [Sodium dehydroacetate]	-0.267 ± 0.55	-1.4 ± 0.22	-2.06 ± 0.58	-1.85 ± 0.29	-2.36 ± 0.14	-1.16 ± 0.3	-0.728 ± 0.029	0.541 ± 0.069	
C#CC(O)C(CC)CCCC (configuration not stated) [4-Ethyloct-1-yn-3-ol]	-1.1 ± 1.3	-0.852 ± 0.24	-1.73 ± 0.62	-1.75 ± 0.33	-0.91 ± 0.66	-1.32 ± 0.19	-1.07 ± 0.15	0.266 ± 0.29	
CCCOC(=O)c1ccc(C(=O)OCCC)nc1 [Dipropyl 2,5-pyridinedicarboxylate]									LDH release cytotoxicity (0.03305 µM): -4.74 ± 0.19%; LDH release cytotoxicity (0.1045 µM): -5.46 ± 0.7%; LDH release cytotoxicity (0.330458 µM): -5.78 ± 1.4%; LDH release cytotoxicity (1.045 µM): -4.98 ± 2.6%; LDH release cytotoxicity (3.30458 µM): -5.75 ± 0.92%; LDH release cytotoxicity (10.45 µM): -5.51 ± 1.6%; LDH release cytotoxicity (33.0458 µM): -4.96 ± 1.7%; LDH release cytotoxicity (104.5 µM): -4.42 ± 1.1%
CC(C)OC(=O)C(C)(C)Oc1ccc(C(=O)c2ccc(Cl)cc2)cc1 [Fenofibrate]	-0.938 ± 0.65	-0.368 ± 1.6	-0.7726 ± 0.0031	-1.53 ± 0.59	-0.41 ± 0.067	-0.735 ± 0.21	-0.291 ± 0.23	0.118 ± 0.2	
O=C1NS(=O)(=O)c2ccccc21 [Sodium saccharin hydrate]	-0.893 ± 0.069	-1.1 ± 0.76	-0.541 ± 0.034	-1.22 ± 0.43	-1.77 ± 0.0062	-0.645 ± 0.66	-0.345 ± 0.15	1.33 ± 0.048	
N#CC1CC(F)(F)CN1C(=O)CNC1CC2CCC(C1)N2c1ncccn1 (configuration not stated)	-1.64 ± 0.046	-2.99 ± 0.32	-2.24 ± 0.023	-2.72 ± 0.35	-2.06 ± 0.031	-1.96 ± 0.71	-1.33 ± 0.77	-1.49 ± 0.99	
CCCCCCCCCCCCCCCC [Hexadecane]	-0.113 ± 0.57	-0.43 ± 0.69	-1.34 ± 0.2	-1.31 ± 0.45	-0.091 ± 0.79	-0.203 ± 0.97	0.166 ± 0.85	-0.385 ± 0.52	
ClC1C(Cl)C(Cl)C(Cl)C(Cl)C1Cl (configuration not stated) [Lindane]	-0.796 ± 0.18	-0.605 ± 0.45	-0.762 ± 1	-0.901 ± 0.75	-0.128 ± 0.47	-0.657 ± 0.1	0.201 ± 0.43	5.07 ± 0.72	
CN(C)CCCN(C)CCCN(C)C [2,6,10-Trimethyl-2,6,10-triazaundecane]	-1.25 ± 0.61	-1.63 ± 0.4	-2.17 ± 0.18	-1.73 ± 0.24	-1.82 ± 0.067	-1.78 ± 0.98	-0.82 ± 0.7	-0.216 ± 0.84	
CC(C)CCCCCCOC(=O)CCCCC(=O)OCCCCCCC(C)C [Hexanedioic acid, diisononyl ester]	-1.22 ± 0.85	-0.123 ± 0.24	0.647 ± 0.098	-0.997 ± 1.1	0.19 ± 0.33	0.0398 ± 0.088	0.663 ± 0.4	0.377 ± 0.98	
CCN(CC)C(=O)SCc1ccc(Cl)cc1 [Thiobencarb]	-1.69 ± 0.22	-1.48 ± 0.59	-1.6 ± 2.2	-2.11 ± 1.5	-1.17 ± 1	-1.78 ± 1.8	-1.01 ± 1.6	2.18 ± 1.2	
Cc1cccc([N+](=O)[O-])c1C [1,2-Dimethyl-3-nitrobenzene]	0.0499 ± 0.58	-0.56 ± 0.35	-0.0544 ± 1	0.0899 ± 0.093	-0.155 ± 0.3	2.03 ± 0.56	1.1 ± 0.079	1.87 ± 0.3	
CC12C=CC(=O)C=C1CCC1C3CC(O)C(O)(C(=O)CO)C3(C)CC(O)C12F (configuration not stated) [Triamcinolone]	-1.85 ± 0.34	-0.492 ± 0.35	-1.39 ± 0.53	-1.34 ± 0.22	-0.853 ± 0.06	-0.509 ± 0.53	-0.546 ± 0.2	2.9 ± 0.79	
COc1ccc(-c2ccccc2)cc1NNC(=O)OC(C)C [Bifenazate]	-1.53 ± 0.49	-1.35 ± 0.97	-1.03 ± 0.83	-1.59 ± 0.54	-1.11 ± 0.95	-0.547 ± 1.4	-0.468 ± 0.53	1.1 ± 1.1	
CCCCCCOC(=O)CC(CC(=O)OCCCCCC)(OC(=O)CCC)C(=O)OCCCCCC [Butyryl-n-trihexylcitrate]	-0.556 ± 0.23	-0.753 ± 0.66	-0.622 ± 0.2	-0.825 ± 0.23	-0.796 ± 0.43	-0.597 ± 0.75	-0.0452 ± 0.87	0.5774 ± 0.0031	
CCCCCOC(=O)c1ccccc1C(=O)OCCCCC [Dipentyl phthalate]	-0.338 ± 1.3	-1.03 ± 0.79	-1.76 ± 0.55	-0.0572 ± 0.49	10.4 ± 0.42	55.1 ± 3.3	47.6 ± 0.78	43.3 ± 0.68	
CC1=C(C)S(=O)(=O)CCS1(=O)=O [Dimethipin]	-2.35 ± 1	-2.52 ± 0.16	-2.59 ± 0.038	-3.12 ± 0.25	-2.6 ± 0.79	-2.6 ± 0.88	-2.51 ± 1.3	-1.52 ± 0.84	
CCCCCC(=O)O [Hexanoic acid]	-2.52 ± 0.086	-1.97 ± 0.41	-0.0407 ± 0.14	-1.44 ± 0.26	-1.32 ± 0.1	-1.49 ± 1.2	-0.358 ± 0.055	0.23 ± 0.78	
CCC(C)c1cc([N+](=O)[O-])cc([N+](=O)[O-])c1O (configuration not stated) [Dinoseb]	-1.28 ± 0.054	0.378 ± 0.78	-1.3 ± 0.076	-1.58 ± 0.37	-0.982 ± 1	-0.113 ± 0.038	0.81 ± 0.59	2.87 ± 1.4	
